Read-outs that look alike come from different tables or passages of the source.

In data set [1] the test system is 5637 cells. Put plainly: MTT cytotoxicity assay, 5637 bladder cancer cells. It counts as cell-based, human. The procedure: (§1) For the hypoxia experiments, cells were cultured at 1% O2 (5% CO2/94% N2; 37 °C) using a hypoxia station (Whitley H35 hypoxystation; Don Whitley, Bingley, UK). All media used in these experiments were incubated under hypoxic conditions before being added to the cells.
(§2) Then, DMSO was added to dissolve the formazan crystals.
(Formazan colour is commonly taken as a measure of viable cells.)

The subject of data set [2] is SCaBER cells. Put plainly: MTT cytotoxicity assay, SCaBER bladder cancer cells. Type of data set: cell-based, human. The note with it: hypoxia (1% oxygen). The procedure: as §1, §2
Data set [3] deals with SCaBER cells. The description is as above. Type of data set: cell-based, human. The note with it: normoxia.
Data set [4] has as its system human peripheral blood mononuclear cell (PBMC). On the set-up: method as in ref 38 (Deters et al.). The note with it: ref 38 (Deters et al.); cited from earlier work.
Data set [5] concerns MRC-5 cells. Briefly: MTT cytotoxicity assay, MRC-5 normal lung fibroblasts.
Description: (§3) Human urinary grade II carcinoma cell line (5637) and human urinary squamous cell carcinoma (SCaBER) were purchased from ATCC (Manassas, VA, USA). The MRC-5 cell line (normal human lung fibroblasts) was purchased from the European Collection of Authenticated Cell Cultures (ECACC) distributed by Sigma-Aldrich. The 5637 cells were grown in RPMI, SCaBER cells were cultured in EMEM, and MRC-5 in DMEM. All media were supplemented with 10% (v/v) FBS, 2 mM L-glutamine, 100 U/mL penicillin, and 10 mg/mL streptomycin in a humidified atmosphere of 5% CO2 at 37 °C.
(§4) 5637 and SCaBER cells were seeded at 15 × 10^3 cells/well, while MRC-5 was at a density of 20 × 10^3 cells/well and incubated overnight. In the case of the hypoxia experiments, cells were transferred to a hypoxia chamber and incubated for 24 h. […] The cytotoxic activity of tested compounds was measured after 24 h and 48 h using the MTT assay. After incubation lasting 24 h and 48 h, the cells were washed twice with PBS, and 170 µL of MTT (final concentration of 0.59 mg/mL in cell culture medium) was added to each well. Cells were incubated for 1.5 h under standard cell culture conditions. Then, DMSO was added to dissolve the formazan crystals. The absorbance was measured at a wavelength of 570 nm with a plate reader (Biotek Instruments, Elx-800, Winooski, VT, USA). Cell viability was calculated as a percentage of the control. All experiments were repeated at least two times (two independent experiments performed in hexaplicate). The IC50 values were determined using GraphPad 8.0 software (GraphPad Software, Inc., La Jolla, CA, USA).
In data set [6] the test system is MRC-5 cells. The note with it: 10 µM.
Description: as §3, §4
Data set [7] deals with 5637 cells. Briefly: Cell cycle distribution, propidium iodide flow cytometry. The following applies: for G2/M cell population: 5637, 6 µM, 24 h. Type of data set: cell-based, human. The procedure:
The 5637 cells (0.4 × 10^6 cells/well) were seeded in 6-well plates and incubated overnight under standard cell culture conditions or in a hypoxia workstation. Then, the tested compound was added at a concentration of 4 µM, 5 µM, and 6 µM (for hypoxic conditions), and 6 µM, 8 µM, and 10 µM (for normoxic conditions), and incubated for 24 h. […] After incubation, cells were washed twice with PBS, trypsinized, and washed again with PBS. Cells were fixed with 70% ethanol at 4 °C. After fixation, the cells were washed twice with PBS and treated with RNAse (100 µg/mL) and PI (50 µg/mL) for 30 min at 37 °C in the dark. The samples were analyzed using BD FACSLyric™ (Becton Dickinson, Franklin Lakes, NJ, USA). Finally, cell cycle distribution was analyzed using flow cytometry. The percentages of cells in the G1, S, and G2/M phases were calculated using FlowJo software version 10.8.1 (Becton Dickinson, Ashland, OR, USA).

Data set [8] concerns 5637 cells. Briefly: Proteome Profiler Human Cell Stress Array. The note with it: 5637, hypoxic conditions, 4 µM, 18 h, compared to control cells. It counts as cell-based. The procedure:
The 5637 cells were seeded in a Petri dish (Ø 35 mm) at a density of 0.4 × 10^6 cells/dish and incubated overnight. Cells were treated with compound 5 at a concentration of 4 µM (hypoxia) and 8 µM (normoxia) for 18 h. […] After incubation, cells were lysed in a lysis buffer containing pepstatin A, leupeptin, and aprotinin (each at a concentration of 10 µg/mL). Total protein was determined using a Pierce BCA protein assay Kit and stored at −80 °C until future use. A total of 300 µg of protein was then incubated with a human Proteome Profiler Human Cell Stress Array (Bio-Techne, Minneapolis, MN, USA) according to the manufacturer’s instructions. The membranes were visualized using the I-Bright Imaging System (Thermofisher Scientific, Waltham, MA, USA). The spot densitometric analysis was performed using Image Studio Lite (version 5.2) software (LI-COR Biosciences, Lincoln, NE, USA).

The nature of data set [9]: MTT cytotoxicity assay, MRC-5 normal lung fibroblasts. The following applies: human, MRC-5 normal lung fibroblasts.
Description: as §3, §4
Details of data set [10]: method as in ref 41 (Wang et al.). The note with it: ref 41 (Wang et al.), cited from earlier work.
Data set [11] deals with T24 cell line. On the set-up: method as in ref 53 (Park et al.). The note with it: T24 cells, 12.5 µM; ref 53 (Park et al.); cited from earlier work.
Where [12] appears, read: Homo sapiens, 24 h, 5637, hypoxia (1% oxygen), 24 h incubation, MTT, read-out: IC50.
Where [13] appears, read: Homo sapiens, 24 h, 5637, normoxia, 24 h incubation, MTT, read-out: IC50.
Where [14] appears, read: Homo sapiens, 48 h, 5637, hypoxia (1% oxygen), 48 h incubation, MTT, read-out: IC50.
Where [15] appears, read: Homo sapiens, 48 h, 5637, normoxia, 48 h incubation, MTT, read-out: IC50.
Where [16] appears, read: Homo sapiens, 24 h, 24 h incubation.
The mark [17] stands for this setting: Homo sapiens, 48 h, 48 h incubation.
Where [18] appears, read: 5637, hypoxia (1% oxygen), 24 h incubation, MTT, read-out: IC50.
[19] abbreviates: 5637, hypoxia (1% oxygen), 48 h incubation, MTT, read-out: IC50.
The mark [20] stands for this setting: 5637, normoxia, 24 h incubation, MTT, read-out: IC50.
Where [21] appears, read: 5637, normoxia, 48 h incubation, MTT, read-out: IC50.
The mark [22] stands for this setting: MRC-5, normoxia, 24 h incubation, MTT.
Setting [23] is: MRC-5, normoxia, 48 h incubation, MTT.
Where [24] appears, read: 5637, 24 h, hypoxic conditions, vs control.

On to `COc1ccc(/C=C/C(=O)/C=C(O)/C=C/c2ccc(OC)c(O)c2)cc1O` [Isocurcumin (13), (1E,4Z,6E)-5-hydroxy-1,7-bis(4-methoxy-3-hydroxyphenyl)-hepta-1,4,6-trien-3-one], for which the IC50 was 13.1 ± 2.89 µM in data set [1] (setting [12]); 10.8 ± 3.46 µM in [1] (setting [13]); 10.1 ± 3.12 µM in data set [1] (setting [14]); 6.71 ± 1.7 µM in data set [1] (setting [15]); 14.2 ± 0.23 µM in [2] (setting [16]); 11.94 ± 0.09 µM in [2] (setting [17]). Further, the IC50 in data set [3] (setting [16]) is 14.7 ± 0.88 µM; in data set [3] (setting [17]), 14.3 ± 0.41 µM; in data set [4] it was 2.8 µM; in data set [5] (Homo sapiens, MRC5, 24 h), more than 20 µM; in [5] (Homo sapiens, MRC5, 48 h) it was more than 20 µM.
As for “(1E,3Z,6E)-1,7-bis(3-methoxy-4-{2-[2-(2-methoxyethoxy)ethoxy]ethoxy}phenyl)-5-oxohepta-1,3,6-trien-3-yl difluoroborinate [Compound 4]”, the IC50 in [1] (setting [18]) was determined as 2.58 ± 0.11 µM; in [1] (setting [19]) it was 2.96 ± 0.23 µM; in data set [1] (setting [20]) it was 3.31 ± 0.34 µM; in data set [1] (setting [21]), 3.27 ± 0.45 µM; in data set [2] (24 h incubation), 2.42 ± 0.23 µM; in data set [2] (48 h incubation) it was 2.86 ± 0.62 µM. In addition, the IC50 in [3] (24 h incubation) was 4.18 ± 1.3 µM; in [3] (48 h incubation) it was 4.57 ± 2.07 µM; in data set [5] (setting [22]) it was more than 10 µM; in data set [5] (setting [23]), more than 10 µM. Further, the cell viability (commonly the share of living cells, or the viability signal relative to a control) in data set [6] was determined as 66%.
On to `COCCOCCOCCOc1ccc(/C=C/C(=O)/C=C(O)/C=C/c2ccc(OCCOCCOCCOC)c(OC)c2)cc1OC` [Compound 5, (1E,4Z,6E)-5-hydroxy-1,7-bis(3-methoxy-4-{2-[2-(2-methoxyethoxy)ethoxy]ethoxy}phenyl)-hepta-1,4,6-trien-3-one], for which the IC50 in [1] (setting [12]) came out at 6.43 ± 0.26 µM; in data set [1] (setting [13]), 8.4 ± 0.21 µM; in data set [1] (Homo sapiens, 24 h, 5637, panel A (normoxia, 5-10 µM), 24 h, read-out: IC50 (narrow concentration range)), 7.89 ± 0.47 µM; in data set [1] (Homo sapiens, 24 h, 5637, panel B (hypoxia 1% oxygen, 3-8 µM), 24 h, read-out: IC50 (narrow concentration range)), 5.29 ± 0.02 µM; in data set [1] (setting [14]), 5.02 ± 1.06 µM; in [1] (setting [15]) it was 7.91 ± 0.46 µM. Further, the IC50 in data set [1] (Homo sapiens, 48 h, 5637, panel A (normoxia, 5-10 µM), 48 h, read-out: IC50 (narrow concentration range)) was determined as 7.82 ± 1 µM; in data set [1] (Homo sapiens, 48 h, 5637, panel B (hypoxia 1% oxygen, 3-8 µM), 48 h, read-out: IC50 (narrow concentration range)), 5.29 ± 0.16 µM; in [2] (setting [16]), 7.27 ± 0.2 µM; in [2] (setting [17]) it was 7.58 ± 0.91 µM; in data set [3] (setting [16]), 8.53 ± 0.16 µM; in data set [3] (setting [17]) it was 7.97 ± 0.4 µM. Also, the IC50 in data set [5] (Homo sapiens, MRC5, 24 h) was more than 10 µM; in data set [5] (Homo sapiens, MRC5, 48 h), more than 10 µM. The G2/M cell population in [7] (hypoxia) is 38%; in data set [7] (normoxia) it was 24%. Also, the “number of cells in the G0/G1 phase” value in data set [7] (setting [24]) is given as “significantly decreased”. Also, the “number of cells in the S phase” value in [7] (setting [24]) is “slightly increased”. The “expression of HIF-1α, HIF-2α, ADAMTS-1, phospho-JNK, p21, and phospho-HSP27” value in data set [8] is given as “increased”. Also, the viability (usually a read-out of living cells in per cent, often relative to untreated cells) at 10 µM in data set [9] is approximately 100%.
Turning to “(1E,3Z,6E)-1,7-bis(4-methoxy-3-hydroxyphenyl)-5-oxohepta-1,3,6-trien-3-yl difluoroborinate [Compound 12]”, the IC50 in [1] (setting [18]) was determined as 2.32 ± 0.29 µM; in data set [1] (setting [19]) it was 2.64 ± 0.54 µM; in [1] (setting [20]), 2.48 ± 0.55 µM; in [1] (setting [21]) it was 2.4 ± 0.45 µM; in data set [2] (24 h incubation) it was 3.26 ± 1.05 µM; in [2] (48 h incubation), 4.25 ± 1.94 µM. Also, the IC50 worked out at 2.28 ± 0.13 µM in data set [3] (24 h incubation), 2.21 ± 0.17 µM in data set [3] (48 h incubation), 9.63 ± 2.61 µM in data set [5] (setting [22]) and 5.8 ± 0.77 µM in data set [5] (setting [23]).
Turning to “(1E,3Z,6E)-1,7-bis(4-methoxy-3-{2-[2-(2-methoxyethoxy)ethoxy]ethoxy}phenyl)-5-oxohepta-1,3,6-trien-3-yl difluoroborinate [Compound 6]”, the IC50 in data set [1] (setting [18]) worked out at 2.37 ± 0.19 µM; in data set [1] (setting [19]) it was 2.66 ± 0.07 µM; in [1] (setting [20]), 2.6 ± 0.99 µM; in data set [1] (setting [21]), 2.63 ± 0.77 µM; in data set [2] (24 h incubation), 5.85 ± 1.98 µM; in data set [2] (48 h incubation) it was 7.28 ± 1.81 µM. Besides, the IC50 was 4.11 ± 1.4 µM in data set [3] (24 h incubation), 4.35 ± 1.97 µM in data set [3] (48 h incubation), more than 10 µM in data set [5] (setting [22]) and 9.34 ± 0.76 µM in [5] (setting [23]).
As to “(1E,3Z,6E)-1,7-bis(3-methoxy-4-hydroxyphenyl)-5-oxohepta-1,3,6-trien-3-yl difluoroborinate [Compound 10]”, the IC50 in data set [1] (setting [18]) was 1.96 ± 0.47 µM; in data set [1] (setting [19]), 2.12 ± 0.33 µM; in [1] (setting [20]), 2.25 ± 0.08 µM; in data set [1] (setting [21]), 2.17 ± 0.24 µM; in data set [2] (24 h incubation), 2.35 ± 0.22 µM; in data set [2] (48 h incubation), 2.6 ± 0.03 µM. For the same molecule, the IC50 in [3] (24 h incubation) is 2.59 ± 0.16 µM; in data set [3] (48 h incubation), 2.71 ± 0.34 µM; in data set [5] (setting [22]), more than 10 µM; in [5] (setting [23]), 7.84 ± 0.15 µM.
For “(1E,4Z,6E)-5-hydroxy-1,7-bis (3-methoxy-4-hydroxyphenyl)-hepta-1,4,6-trien-3-one [Curcumin (11), reference compound]”, the IC50 stood at 12.1 ± 0.16 µM in [1] (setting [18]); 13.3 ± 0.54 µM in [1] (setting [19]); 12.7 ± 3.03 µM in [1] (setting [20]); 12.9 ± 2.35 µM in [1] (setting [21]); 11.6 ± 0.83 µM in data set [2] (24 h incubation); 11.3 ± 0.19 µM in data set [2] (48 h incubation). Further, the IC50 in [3] (24 h incubation) was 13.1 ± 0.68 µM; in [3] (48 h incubation) it was 12.6 ± 0.62 µM; in data set [4], 2.8 µM; in data set [5] (setting [22]) it was 70.4 ± 12.5 µM; in data set [5] (setting [23]), 45.3 ± 3.18 µM. The curcumin decomposed result in data set [10] (cell culture medium in the presence of FCS, within 1 h) is given as “less than 20%”; in [10] (cell culture medium in the presence of FCS, within 8 h), less than 50%; in data set [10] (serum-free medium, within 30 min) it was “about 90%”. Also, the “cell population in G2/M” value in data set [11] is 64%.
On to `COCCOCCOCCOc1cc(/C=C/C(=O)/C=C(O)/C=C/c2ccc(OC)c(OCCOCCOCCOC)c2)ccc1OC` [Compound 7, (1E,4Z,6E)-5-hydroxy-1,7-bis(4-methoxy-3-{2-[2-(2-methoxyethoxy)ethoxy]ethoxy}phenyl)-hepta-1,4,6-trien-3-one], for which the viability at 10 µM in data set [1] (Homo sapiens, 5637, 10 µM, 24 h incubation, preliminary screen, read-out: cell viability) is more than 60%.
